# Patent publication US20190284136A1, “INDOLINE DERIVATIVES” (ViiV HEALTHCARE UK LIMITED, priority 2016, published 2019)
# Test system: HIV
# Assay: Table 1 IC50 of the examples (assay method not given; patent concerns inhibiting HIV replication)
# Assay type: cell-based
# Conditions: not given
row,SMILES,IC50
1,"COc1c(F)cccc1C(=O)N1CCc2c1cc(C)c([C@H](OC(C)(C)C)C(=O)O)c2-c1cc(F)c2c(c1C)CCCO2 (atropisomer, axis not shown) [Example 45, (S)-2-(tert-Butoxy)-2-((R)-1-(3-fluoro-2-methoxybenzoyl)-4-(8-fluoro-5-methylchroman-6-yl)-6-methylindolin-5-yl)acetic acid]",0.001 µM

# Same assay, conditions: Human immunodeficiency virus 1
row,SMILES,IC50
1,"Cc1cc2c(c(-c3cc(F)c4c(c3C)CCCO4)c1[C@H](OC(C)(C)C)C(=O)O)CCN2C(=O)c1ccc2c(c1)OCC2 (atropisomer, axis not shown) [Example 178, (S)-2-(tert-Butoxy)-2-((R)-1-(2,3-Dihydrobenzofuran-6-carbonyl)-4-(8-fluoro-5-methylchroman-6-yl)-6-methylindolin-5-yl)acetic acid]",0.004 µM
2,"Cc1ccc(-c2c3c(cc(C)c2[C@H](OC(C)(C)C)C(=O)O)N(S(=O)(=O)C2CCCCC2)CC3)cc1 [Example 28, (S)-2-(tert-Butoxy)-2-(1-(cyclohexylsulfonyl)-6-methyl-4-(p-tolyl)indolin-5-yl)acetic acid]",11.4 µM
3,"Cc1cc2c(c(-c3cc(F)c4c(c3C)CCCO4)c1[C@H](OC(C)(C)C)C(=O)O)CCN2C(=O)c1ccc(Cl)cc1F (atropisomer, axis not shown) [Example 138, (S)-2-(tert-Butoxy)-2-((R)-1-(4-chloro-2-fluorobenzoyl)-4-(8-fluoro-5-methylchroman-6-yl)-6-methylindolin-5-yl)acetic acid]",0.005 µM
4,"Cc1ccc(-c2c3c(cc(C)c2[C@H](OC(C)(C)C)C(=O)O)N(C(=O)c2cccc(F)c2C)CC3)cc1 [Example 30, (S)-2-(tert-Butoxy)-2-(1-(3-fluoro-2-methylbenzov)-6-methyl-4-(p-tolyl)indolin-5-yl)acetic acid]",0.008 µM
5,"Cc1cc2c(c(-c3cc(F)c4c(c3C)CCCO4)c1[C@H](OC(C)(C)C)C(=O)O)CCN2C(=O)C1CCOCC1 (atropisomer, axis not shown) [Example 65, (S)-2-(tert-Butoxy)-2-((R)-4-(8-fluoro-5-methylchroman-6-yl)-6-methyl-1-(tetrahydro-2H-pyran-4-carbonyl)indolin-5-yl)acetic acid]",0.378 µM
6,"Cc1cc2c(c(-c3cc(F)c4c(c3C)CCCO4)c1[C@H](OC(C)(C)C)C(=O)O)CCN2C(=O)c1cccc2c1OCC2 (atropisomer, axis not shown) [Example 100, (S)-2-(tert-Butoxy)-2-((R)-1-(2,3-dihydrobenzofuran-7-carbonyl)-4-(8-fluoro-5-methylchroman-6-yl)-6-methylindolin-5-yl)acetic acid]",0.005 µM
7,"Cc1cc2c(ccn2C(=O)c2ccc(F)c(F)c2)c(-c2cc(F)c3c(c2C)CCCO3)c1[C@H](OC(C)(C)C)C(=O)O (atropisomer, axis not shown) [Example 203, (S)-2-(tert-Butoxy)-2-((R)-1-(3,4-difluorobenzoyl)-4-(8-fluoro-5-methylchroman-6-yl)-6-methyl-1H-indol-5-yl)acetic acid]",0.016 µM
8,"COc1ccc(C(=O)N2CCc3c2cc(C)c([C@H](OC(C)(C)C)C(=O)O)c3-c2cc(F)c3c(c2C)CCCO3)cn1 (atropisomer, axis not shown) [Example 170, (S)-2-(tert-Butoxy)-2-((R)-4-(8-fluoro-5-methylchroman-6-yl)-1-(6-methoxynicotinoyl)-6-methylindolin-5-yl)acetic acid]",0.014 µM
9,"Cc1ccc(-c2c3c(cc(C)c2[C@H](OC(C)(C)C)C(=O)O)N(C(=O)c2cccc(F)c2F)CC3)cc1 [Example 43, (S)-2-(tert-Butoxy)-2-(1-(2,3-difluorobenzoyl)-6-methyl-4-(p-tolyl)indolin-5-yl)acetic acid]",0.01 µM
10,"Cc1cc2c(ccn2Cc2ccc(F)c(F)c2)c(-c2cc(F)c3c(c2C)CCCO3)c1[C@H](OC(C)(C)C)C(=O)O (atropisomer, axis not shown) [Example 198, (S)-2-(tert-Butoxy)-2-((R)-1-(3,4-difluorobenzyl)-4-(8-fluoro-5-methylchroman-6-yl)-6-methyl-1H-indol-5-yl)acetic acid]",0.15 µM
